Biological target: Alpha-glucosidase MAL12 (Saccharomyces cerevisiae S288c, UniProt P53341)
Assay: Inhibition of baker's yeast alpha-glucosidase

Sequence of Alpha-glucosidase MAL12 (P53341 whole entry): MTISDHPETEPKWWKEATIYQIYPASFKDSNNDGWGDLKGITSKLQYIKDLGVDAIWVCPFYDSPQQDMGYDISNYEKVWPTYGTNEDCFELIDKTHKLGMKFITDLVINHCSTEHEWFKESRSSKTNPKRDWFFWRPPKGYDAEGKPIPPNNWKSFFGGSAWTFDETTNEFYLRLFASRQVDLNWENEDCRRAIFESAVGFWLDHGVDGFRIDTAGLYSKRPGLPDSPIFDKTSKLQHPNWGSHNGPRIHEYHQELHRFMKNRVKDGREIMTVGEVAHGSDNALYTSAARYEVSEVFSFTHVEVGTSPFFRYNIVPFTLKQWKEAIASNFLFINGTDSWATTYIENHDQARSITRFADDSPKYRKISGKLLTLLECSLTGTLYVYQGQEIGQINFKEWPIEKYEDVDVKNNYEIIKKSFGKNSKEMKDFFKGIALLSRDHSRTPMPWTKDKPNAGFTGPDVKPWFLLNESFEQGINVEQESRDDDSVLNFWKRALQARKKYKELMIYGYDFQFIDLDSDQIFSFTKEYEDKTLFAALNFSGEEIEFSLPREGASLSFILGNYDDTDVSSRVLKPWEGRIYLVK

- IC50: 36 µM
Structure (SMILES): N[C@@H]1C[C@](O)(CO)[C@@H](O)[C@H](O)[C@H]1O

— ChEMBL document CHEMBL1142986, “Synthesis of valiolamine and some precursors for bioactive carbaglycosylamines from (-)-vibo-quercitol produced by biogenesis of myo-inositol” (J Nat Prod, 2007)
